31 compounds from ChEMBL document CHEMBL5113527, “First-in-Class Hydrazide-Based HDAC6 Selective Inhibitor with Potent Oral Anti-Inflammatory Activity by Attenuating NLRP3 Inflammasome Activation” (J Med Chem, 2022) can be followed below.

The structures appear in SMILES notation. Bounds are passed on as bounds.

One data set deals with Histone deacetylase 1 (Homo sapiens, UniProt Q13547). Put plainly: Inhibition of recombinant HDAC1 (unknown origin) using Boc-Lys(acetyl)-AMC as substrate preincubated for 1 hr followed by substrate addition and measured after 2 hrs by fluorescence based microplate reader analysis.
Chain of Histone deacetylase 1 (Q13547 whole entry): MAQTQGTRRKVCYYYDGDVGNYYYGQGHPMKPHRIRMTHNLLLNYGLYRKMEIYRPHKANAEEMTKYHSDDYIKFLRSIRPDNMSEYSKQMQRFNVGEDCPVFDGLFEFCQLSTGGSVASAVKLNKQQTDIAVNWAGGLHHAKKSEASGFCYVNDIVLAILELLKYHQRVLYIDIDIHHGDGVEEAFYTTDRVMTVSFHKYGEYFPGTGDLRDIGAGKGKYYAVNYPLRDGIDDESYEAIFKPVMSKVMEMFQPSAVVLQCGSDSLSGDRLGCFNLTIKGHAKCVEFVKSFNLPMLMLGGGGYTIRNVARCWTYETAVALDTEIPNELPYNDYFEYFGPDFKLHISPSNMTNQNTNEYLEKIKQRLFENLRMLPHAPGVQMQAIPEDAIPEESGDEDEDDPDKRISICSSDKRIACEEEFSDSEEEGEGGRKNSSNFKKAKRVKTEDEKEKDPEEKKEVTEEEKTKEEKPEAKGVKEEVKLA
A further data set addresses Histone deacetylase 2 (Homo sapiens, UniProt Q92769). Put plainly: Inhibition of recombinant HDAC2 (unknown origin) using Boc-Lys(acetyl)-AMC as substrate preincubated for 1 hr followed by substrate addition and measured after 2 hrs by fluorescence based microplate reader analysis.
For the next data set, the species on record is Homo sapiens. Briefly: Selectivity index, ratio of IC50 for recombinant HDAC1(unknown origin) to IC50 for full length recombinant human HDAC6.
Data set [1] concerns the target T1, Histone deacetylase 3 (Homo sapiens, UniProt O15379). Put plainly: Inhibition of recombinant HDAC3 (unknown origin) using Boc-Lys(acetyl)-AMC as substrate preincubated for 1 hr followed by substrate addition and measured after 2 hrs by fluorescence based microplate reader analysis.
Data set [2] addresses T2, Protein deacetylase HDAC6 (Homo sapiens, UniProt Q9UBN7).
T2 sequence (Q9UBN7 whole entry): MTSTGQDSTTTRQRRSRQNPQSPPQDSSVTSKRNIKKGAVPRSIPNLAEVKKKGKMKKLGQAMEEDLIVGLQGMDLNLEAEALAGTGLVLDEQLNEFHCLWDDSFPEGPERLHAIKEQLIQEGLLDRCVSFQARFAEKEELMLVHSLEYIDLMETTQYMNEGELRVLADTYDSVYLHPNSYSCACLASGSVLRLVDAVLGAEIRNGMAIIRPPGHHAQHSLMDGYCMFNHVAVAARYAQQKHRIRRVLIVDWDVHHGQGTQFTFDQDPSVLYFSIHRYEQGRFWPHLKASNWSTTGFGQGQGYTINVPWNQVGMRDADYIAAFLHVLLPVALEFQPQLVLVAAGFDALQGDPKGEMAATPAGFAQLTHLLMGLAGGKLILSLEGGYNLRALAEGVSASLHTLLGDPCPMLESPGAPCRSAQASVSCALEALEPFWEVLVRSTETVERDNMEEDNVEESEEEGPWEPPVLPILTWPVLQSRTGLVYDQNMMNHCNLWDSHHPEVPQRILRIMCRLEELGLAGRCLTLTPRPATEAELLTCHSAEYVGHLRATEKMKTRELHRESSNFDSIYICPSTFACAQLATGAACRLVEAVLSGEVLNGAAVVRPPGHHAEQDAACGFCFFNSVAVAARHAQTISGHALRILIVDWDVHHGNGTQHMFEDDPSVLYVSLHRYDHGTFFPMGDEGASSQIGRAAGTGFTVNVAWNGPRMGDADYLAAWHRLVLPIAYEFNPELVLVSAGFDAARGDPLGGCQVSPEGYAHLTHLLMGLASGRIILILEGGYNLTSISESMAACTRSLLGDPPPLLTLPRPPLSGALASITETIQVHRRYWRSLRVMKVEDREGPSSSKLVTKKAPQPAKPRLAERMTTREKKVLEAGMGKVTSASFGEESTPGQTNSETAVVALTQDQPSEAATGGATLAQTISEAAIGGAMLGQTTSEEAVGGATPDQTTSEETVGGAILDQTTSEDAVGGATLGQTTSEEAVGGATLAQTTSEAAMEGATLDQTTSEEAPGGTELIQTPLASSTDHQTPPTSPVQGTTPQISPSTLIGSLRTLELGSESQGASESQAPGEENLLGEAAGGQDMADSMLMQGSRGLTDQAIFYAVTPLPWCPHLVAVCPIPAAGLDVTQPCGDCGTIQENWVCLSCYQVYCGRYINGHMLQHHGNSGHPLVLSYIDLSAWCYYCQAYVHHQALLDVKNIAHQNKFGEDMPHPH
Put plainly: Inhibition of recombinant HDAC6 (unknown origin) using Boc-Lys(acetyl)-AMC as substrate preincubated for 1 hr followed by substrate addition and measured after 2 hrs by fluorescence based microplate reader analysis.

Data set [3] is described as follows: Half life in CD-1 mouse at 5 mg/kg, iv measured after 0.083 to 24 hrs by LC-MS/MS analysis. The data set is classed as ADME, organism-based. The following applies: in vivo, time 0.083-24 hrs.
Data set [4] in a line: AUC(0 to infinity) in CD-1 mouse at 5 mg/kg, iv measured after 0.083 to 24 hrs by LC-MS/MS analysis. The following applies: in vivo. Details: dose 5 mg/kg, time upper 24 hrs, time lower 0.083 hrs, route iv. The format is ADME, organism-based.
Data set [5] in a line: Inhibition of HDAC11(unknown origin) preincubated for 1 hr followed by substrate addition and measured after 2 hrs by fluorescence based microplate reader analysis. Details: species or system Homo sapiens.
Data set [6] in a line: Cmax in CD-1 mouse at 5 mg/kg, iv measured after 0.083 to 24 hrs by LC-MS/MS analysis. The data set is classed as ADME, organism-based. Set-up: dose 5 mg/kg, time 0.083-24 hrs, route iv. To be noted: in vivo.
Data set [7] concerns the target T1, Histone deacetylase 3. Put plainly: Inhibition of HDAC3 (unknown origin).

T1 sequence (O15379 whole entry): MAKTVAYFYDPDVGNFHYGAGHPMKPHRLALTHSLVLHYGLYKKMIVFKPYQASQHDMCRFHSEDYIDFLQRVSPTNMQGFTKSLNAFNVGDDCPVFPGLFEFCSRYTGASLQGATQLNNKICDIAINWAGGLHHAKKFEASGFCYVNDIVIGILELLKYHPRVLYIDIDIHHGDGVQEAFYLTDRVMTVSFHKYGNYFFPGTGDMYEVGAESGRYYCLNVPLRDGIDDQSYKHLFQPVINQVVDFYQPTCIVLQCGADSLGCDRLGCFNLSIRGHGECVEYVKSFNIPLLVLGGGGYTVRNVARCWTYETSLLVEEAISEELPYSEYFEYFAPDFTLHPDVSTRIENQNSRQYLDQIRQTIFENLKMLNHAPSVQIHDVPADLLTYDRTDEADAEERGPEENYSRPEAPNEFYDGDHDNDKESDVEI
Chain of Histone deacetylase 2 (Q92769 whole entry): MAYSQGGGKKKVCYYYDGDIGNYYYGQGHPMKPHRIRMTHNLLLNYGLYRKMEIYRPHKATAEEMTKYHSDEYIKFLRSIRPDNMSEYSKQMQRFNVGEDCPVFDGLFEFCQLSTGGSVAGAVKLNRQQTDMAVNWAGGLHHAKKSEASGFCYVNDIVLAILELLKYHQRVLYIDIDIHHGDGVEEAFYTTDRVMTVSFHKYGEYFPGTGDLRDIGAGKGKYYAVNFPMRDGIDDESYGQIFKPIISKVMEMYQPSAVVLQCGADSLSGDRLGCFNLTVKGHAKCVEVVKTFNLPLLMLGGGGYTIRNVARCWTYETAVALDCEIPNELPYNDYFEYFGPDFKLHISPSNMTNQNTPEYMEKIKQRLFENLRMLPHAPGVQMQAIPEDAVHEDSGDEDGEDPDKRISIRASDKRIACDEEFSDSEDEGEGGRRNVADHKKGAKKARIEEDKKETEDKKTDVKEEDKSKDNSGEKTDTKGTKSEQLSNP

The IC50 is the concentration that inhibits the measured activity by half. For `CCNNC(=O)c1ccc(CN2c3ccccc3C=Cc3ccc(C(F)(F)F)cc32)cc1`, the IC50 is > 5000 nM at Histone deacetylase 1, > 5000 nM at Histone deacetylase 2, 1850 nM on Histone deacetylase 3 [1] and 173 nM in data set [2]. Moreover, in the data set listed under Homo sapiens, the Ratio IC50 was > 29.
The term half-life denotes the time in which the quantity being followed falls by half. The AUC(0-inf) is total exposure, with the tail of the curve extrapolated. Low readings indicate less exposure, high ones more exposure. For orientation: Cmax means the highest concentration seen after dosing. As to `O=C(CCCCCCNC(=O)c1cnc(N(c2ccccc2)c2ccccc2)nc1)NO` [RICOLINOSTAT], the half-life in data set [3] is 2.62 h. The AUC(0-inf) in [4] is 342 ng·h/mL. Further, the IC50 in [5] is > 5000 nM. In addition, the concentration in data set [6] peaked (Cmax) at 372 ng/mL.
Turning to `CCNNC(=O)c1ccc(Cn2c3ccccc3c3cnccc32)cc1`, the IC50 was > 5000 nM at Histone deacetylase 1, 3230 nM at Histone deacetylase 2, 4610 nM at Histone deacetylase 3 [1] and 110 nM in data set [2]. Further, the Ratio IC50 in the data set filed under Homo sapiens was > 45.
The corresponding values for `CCNNC(=O)c1ccc(Cn2ccc3cc(C(=O)c4ccc(OC)cc4)ccc32)cc1` are 543 nM, 913 nM, 217 nM, 449 nM and 1.2.
Take `CNNC(=O)c1ccc(CNC(=O)c2ccccc2)cc1`: the IC50 at Histone deacetylase 1 stood at 4620 nM; in data set [2], 878 nM. Moreover, in the data set filed under Homo sapiens, the Ratio IC50 was determined as 5.2.
Turning to `CCCCN(Cc1ccc(C(=O)NNCC)cc1)C(=O)Nc1ccccc1`, the IC50 is 341 nM at Histone deacetylase 1, 78 nM on Histone deacetylase 2, 191 nM at Histone deacetylase 3 [1] and 132 nM in [2]. Besides, in the data set filed under Homo sapiens, the Ratio IC50 turned out to be 2.5.
The matching figures for `CCNNC(=O)c1ccc(Cn2c3ccccc3c3ccccc32)cc1`: > 5000 nM, > 5000 nM, 2330 nM, 361 nM and > 14.
The matching figures for `CCNNC(=O)c1ccc(CN2c3ccccc3Sc3cccnc32)cc1`: 3990 nM, > 5000 nM, 1770 nM, 61 nM and 65.
Consider `CCNNC(=O)c1csc(-c2cccnc2)n1`, for which the IC50 on Histone deacetylase 1 was > 5000 nM; at Histone deacetylase 2, 316 nM; on Histone deacetylase 3 [1], > 5000 nM; in [2], > 5000 nM.
As to `CCNNC(=O)c1ccc(CNc2cccc3cccnc23)cc1`, the half-maximal inhibitory concentration (IC50) at Histone deacetylase 1 is 659 nM; at Histone deacetylase 2 it was 82 nM; on Histone deacetylase 3 [1], 147 nM; in [2] it was 41 nM.
As to `CCCNNC(=O)c1ccc(CNC(=O)c2ccccc2)cc1`, the IC50 at Histone deacetylase 1 is 13 nM; in data set [2] it was > 5000 nM. Also, the Ratio IC50 in the data set listed under Homo sapiens was 0.002.
As for `CCNNC(=O)c1ccc(Cn2nnnc2-c2cccs2)cc1`, the IC50 at Histone deacetylase 1 amounted to 80 nM; at Histone deacetylase 2 it was 41 nM; at Histone deacetylase 3 [1], 26 nM; in data set [2] it was 16 nM. Further, the Ratio IC50 in the data set filed under Homo sapiens amounted to 5.
On Histone deacetylase 3 [7], `CCCCN(Cc1ccc(C(=O)NO)cc1)C(=O)Nc1ccccc1` [NEXTURASTAT A] gave an IC50 of 6080 nM.
Take `CCNNC(=O)c1ccc(Cn2c(=O)n(CCc3ccccc3)c(=O)c3ccccc32)cc1`: the IC50 at Histone deacetylase 1 stood at 1690 nM; at Histone deacetylase 2, 1200 nM; on Histone deacetylase 3 [1] it was 77 nM; in [2], 145 nM. Further, the Ratio IC50 in the data set listed under Homo sapiens is 11.
Consider `CCNNC(=O)c1coc(-c2ccc(Br)cc2)c1`, for which the IC50 (on Histone deacetylase 1; at Histone deacetylase 2; at Histone deacetylase 3 [1]; in [2]) was > 5000 nM in each case.
For `CCNNC(=O)c1ccc(Cn2c3c(c4ccccc42)CCCC3)cc1`, the IC50 at Histone deacetylase 1 was > 5000 nM; at Histone deacetylase 2, > 5000 nM; at Histone deacetylase 3 [1], > 5000 nM; in data set [2], 455 nM. In addition, the Ratio IC50 in the data set filed under Homo sapiens is > 11.
Regarding `CCNNC(=O)c1ccc(CNC(=O)Nc2cccc3cccnc23)cc1`, the IC50 was determined as 3 nM on Histone deacetylase 1, 6 nM on Histone deacetylase 2, 0.9 nM at Histone deacetylase 3 [1] and 34 nM in [2].
Take `CCNNC(=O)c1ccc(CN2c3ccccc3Oc3ccccc32)cc1`: the IC50 at Histone deacetylase 1 is > 5000 nM; on Histone deacetylase 2, > 5000 nM; on Histone deacetylase 3 [1], 3130 nM; in [2] it was 843 nM. Further, the Ratio IC50 in the data set listed under Homo sapiens is > 6.
For the compound `CCNNC(=O)c1ccc(CN2c3ccccc3C=Cc3ccc(F)cc32)cc1`, the IC50 amounted to 2520 nM at Histone deacetylase 1, 4120 nM on Histone deacetylase 2, 563 nM at Histone deacetylase 3 [1] and 37 nM in data set [2]. In addition, the Ratio IC50 in the data set filed under Homo sapiens was 68.
On to `CCNNC(=O)c1ccc(CN2c3ccccc3C=Cc3ccc(C)cc32)cc1`, for which the 50% inhibitory concentration (IC50) on Histone deacetylase 1 was determined as 2270 nM; at Histone deacetylase 2, 4390 nM; on Histone deacetylase 3 [1], 469 nM; in data set [2], 76 nM. Besides, the Ratio IC50 in the data set filed under Homo sapiens stood at 30.
Consider `CCNNC(=O)c1ccc(Cn2c3ccccc3c3ccncc32)cc1`, for which the IC50 on Histone deacetylase 1 was > 5000 nM; at Histone deacetylase 2, 4380 nM; on Histone deacetylase 3 [1], > 5000 nM; in data set [2], 73 nM. Besides, in the data set filed under Homo sapiens, the Ratio IC50 was > 68.
For `CCNNC(=O)c1ccc(CN2c3ccccc3C=Cc3nc(C)nc(C)c32)cc1`, the IC50 is 2260 nM at Histone deacetylase 1, > 5000 nM on Histone deacetylase 2, 1160 nM at Histone deacetylase 3 [1] and 47 nM in [2]. In the data set filed under Homo sapiens, the Ratio IC50 came to 48.
The corresponding values for `CCNNC(=O)c1ccc(CN2c3ccccc3CC(=O)c3ccccc32)cc1` are 3920 nM, > 5000 nM, > 5000 nM, 105 nM and 37.
On to `CCCCN(Cc1ccc(C(=O)NNCC)cc1)C(=O)c1ccccc1`, for which the IC50 at Histone deacetylase 1 came to 1270 nM; at Histone deacetylase 2, 187 nM; on Histone deacetylase 3 [1] it was 446 nM; in data set [2] it was 189 nM. The Ratio IC50 in the data set filed under Homo sapiens was found to be 6.7.
The matching figures for `CCNNC(=O)c1ccc(CN2c3ccccc3Cc3ccccc32)cc1`: 3190 nM, > 5000 nM, 1430 nM, 235 nM and 13.
For the compound `CCNNC(=O)c1ccc(CN2c3ccccc3CCc3ccccc32)cc1`, the IC50 at Histone deacetylase 1 is > 5000 nM; at Histone deacetylase 2 it was > 5000 nM; on Histone deacetylase 3 [1] it was 3950 nM; in data set [2], 250 nM. In the data set listed under Homo sapiens, the Ratio IC50 was > 20.
In the case of `CCNNC(=O)c1ccc(NC(=O)Nc2cccc3cccnc23)cc1`, the IC50 amounted to 1430 nM on Histone deacetylase 1, 233 nM at Histone deacetylase 2, 446 nM on Histone deacetylase 3 [1] and 1530 nM in [2]. In addition, in the data set filed under Homo sapiens, the Ratio IC50 was determined as 0.9.
`CCNNC(=O)c1ccc(CNC(=O)c2ccccc2)cc1`: the IC50 at Histone deacetylase 1 was 399 nM; in data set [2] it was 78 nM. In addition, the Ratio IC50 in the data set filed under Homo sapiens is 5.1.
In the case of `CCNNC(=O)c1ccc(CN2c3ccccc3Sc3ccccc32)cc1`, the IC50 on Histone deacetylase 1 was > 5000 nM; at Histone deacetylase 2, > 5000 nM; at Histone deacetylase 3 [1] it was 3960 nM; in data set [2], 175 nM. For the same compound, in the data set listed under Homo sapiens, the Ratio IC50 is > 28.
Turning to `CCNNC(=O)c1ccc(CN2c3ccccc3C=Cc3ccccc32)cc1`, the IC50 on Histone deacetylase 1 was 2300 nM; at Histone deacetylase 2, > 5000 nM; at Histone deacetylase 3 [1], 1610 nM; in data set [2], 42 nM. In addition, the Ratio IC50 in the data set filed under Homo sapiens was 54.
The corresponding values for `CCNNC(=O)c1ccc(Cn2c3ccccc3c3cccnc32)cc1` are 2860 nM, 2340 nM, 1590 nM, 37 nM and 77.
